# From PubChem BioAssay AID248 (DTP/NCI, 2004)
# Values joined by “and” are separate entries in the source; they are usually repeats but may differ in a detail not shown here. Equal values may be shown once. Toxic doses and inconclusive results are not listed.
# Tested on: L1210 leukemia ip in BDF1 mice, survival T/C
# Test: NCI In Vivo Anticancer Drug Screen. Data for tumor model L1210 Leukemia (intraperitoneal) in B6D2F1 (BDF1) mice
# Settings: endpoint: mean survival time, higher = longer survival
# How it was run: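 Mice bearing the transplanted tumor received compound or vehicle. Survival of the treated group was divided by that of the vehicle-treated control group to give the ratio.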
# [1] = dose: 100.0 mg/kg/injection, schedule: Q01DX001 (ip), vehicle: carboxymethylcellulose (CMC)
# [2] = dose: 200.0 mg/kg/injection, schedule: Q01DX001 (ip), vehicle: carboxymethylcellulose (CMC)
# [3] = dose: 100.0 mg/kg/injection, schedule: Q01DX009 (ip), vehicle: saline with Tween-80
# [4] = dose: 200.0 mg/kg/injection, schedule: Q01DX009 (ip), vehicle: saline with Tween-80
# [5] = dose: 100.0 mg/kg/injection, schedule: Q01DX001 (ip), vehicle: saline
# [6] = dose: 200.0 mg/kg/injection, schedule: Q01DX001 (ip), vehicle: saline
# [7] = dose: 400.0 mg/kg/injection, schedule: Q01DX001 (ip), vehicle: saline
structure (smiles),measurement,setting,value
CC(=O)c1c[nH]c2c(O)ccc(O)c12,T/C,"dose: 6.25 mg/kg/injection, schedule: Q04DX002 (ip), vehicle: Klucel (hydroxypropylcellulose) (HPC)",93 % of control
same,T/C,"dose: 12.5 mg/kg/injection, schedule: Q04DX002 (ip), vehicle: Klucel (hydroxypropylcellulose) (HPC)",96 % of control
same,T/C,"dose: 25.0 mg/kg/injection, schedule: Q04DX002 (ip), vehicle: Klucel (hydroxypropylcellulose) (HPC)",99 % of control and 107 % of control
CCCCCCCCOC(=O)Nc1ccc(S(=O)(=O)CC)cc1,T/C,[1],91 % of control
same,T/C,[2],89 % of control
same,T/C,"dose: 400.0 mg/kg/injection, schedule: Q01DX001 (ip), vehicle: carboxymethylcellulose (CMC)",89 % of control
O=C1c2ccccc2Cc2ccc(-c3ccccc3)cc21,T/C,"dose: 50.0 mg/kg/injection, schedule: Q01DX009 (ip), vehicle: saline with Tween-80",92 % of control
same,T/C,[3],95 % of control
same,T/C,[4],89 % of control
COc1cc([N+](=O)[O-])c(N)c([N+](=O)[O-])c1,T/C,"dose: 50.0 mg/kg/injection, schedule: Q01DX001 (ip), vehicle: saline",96 % of control
same,T/C,[5],108 % of control
same,T/C,[6],96 % of control
same,T/C,[7],93 % of control
O=S(=O)(Cc1ccccc1)SSS(=O)(=O)Cc1ccccc1,T/C,"dose: 75.0 mg/kg/injection, schedule: Q01DX001 (ip), vehicle: saline",98 % of control
same,T/C,"dose: 150.0 mg/kg/injection, schedule: Q01DX001 (ip), vehicle: saline",106 % of control
same,T/C,"dose: 300.0 mg/kg/injection, schedule: Q01DX001 (ip), vehicle: saline",95 % of control
CC1=NN(c2ccccc2)C(=O)C1N=Nc1ccc([As](=O)(O)O)c(O)c1 (stereo unspecified),T/C,[5],96 % of control
same,T/C,[6],102 % of control
same,T/C,[7],100 % of control
CCC1CN2C(=N1)c1ccccc1-c1cc(Cl)ccc12 (stereo unspecified),T/C,"dose: 6.25 mg/kg/injection, schedule: Q01DX009 (ip), vehicle: suspension in saline",102 % of control
same,T/C,"dose: 10.0 mg/kg/injection, schedule: Q01DX001 (ip), vehicle: Klucel (hydroxypropylcellulose) (HPC)",103 % of control
same,T/C,"dose: 10.0 mg/kg/injection, schedule: Q01DX009 (ip), vehicle: Klucel (hydroxypropylcellulose) (HPC)",90 % of control
same,T/C,"dose: 12.5 mg/kg/injection, schedule: Q01DX009 (ip), vehicle: suspension in saline",102 % of control
same,T/C,"dose: 20.0 mg/kg/injection, schedule: Q01DX001 (ip), vehicle: Klucel (hydroxypropylcellulose) (HPC)",114 % of control
same,T/C,"dose: 20.0 mg/kg/injection, schedule: Q01DX009 (ip), vehicle: Klucel (hydroxypropylcellulose) (HPC)",90 % of control
same,T/C,"dose: 20.0 mg/kg/injection, schedule: Q01DX009 (ip), vehicle: saline",111 % of control
same,T/C,"dose: 20.0 mg/kg/injection, schedule: Q04DX002 (ip), vehicle: saline",114 % of control
same,T/C,"dose: 20.0 mg/kg/injection, schedule: Q04DX003 (ip), vehicle: Klucel (hydroxypropylcellulose) (HPC)",88 % of control
same,T/C,"dose: 25.0 mg/kg/injection, schedule: Q01DX009 (ip), vehicle: suspension in saline",110 % of control
same,T/C,"dose: 40.0 mg/kg/injection, schedule: Q01DX001 (ip), vehicle: Klucel (hydroxypropylcellulose) (HPC)",108 % of control
same,T/C,"dose: 40.0 mg/kg/injection, schedule: Q04DX002 (ip), vehicle: saline",118 % of control
same,T/C,"dose: 40.0 mg/kg/injection, schedule: Q04DX003 (ip), vehicle: Klucel (hydroxypropylcellulose) (HPC)",88 % of control
same,T/C,"dose: 80.0 mg/kg/injection, schedule: Q01DX009 (ip), vehicle: saline",188 % of control
same,T/C,"dose: 80.0 mg/kg/injection, schedule: Q04DX002 (ip), vehicle: saline",122 % of control
O=C(NC1CCCCC1)NC1CCCCC1,T/C,[3],95 % of control
same,T/C,[4],88 % of control
same,T/C,"dose: 400.0 mg/kg/injection, schedule: Q01DX009 (ip), vehicle: saline with Tween-80",87 % of control
COc1c2c(c3c(c1OC)c(=O)c1ccccc1n3C)OCO2,T/C,"dose: 50.0 mg/kg/injection, schedule: Q01DX001 (ip), vehicle: carboxymethylcellulose (CMC)",96 % of control
same,T/C,[1],93 % of control
same,T/C,[2],107 % of control
same,T/C,"dose: 300.0 mg/kg/injection, schedule: Q01DX001 (ip), vehicle: carboxymethylcellulose (CMC)",102 % of control
